Publication PMC3057995, “Potent Anti-Tumor Effect Generated by a Novel Human Papillomavirus (HPV) Antagonist Peptide Reactivating the pRb/E2F Pathway” (PLoS ONE, 2011)
“Also recorded” adds a separate entry of the source.

Tests used:
HeLa cells = experiment: MTT cell viability assay, HeLa; format: cell-based; conditions: HPV18-positive, A540
Protocol: Cell viability was determined with an MTT assay. Briefly, the cells were seeded into 96-well plates at a density of 4–5×10^3 cells/well. The cells were allowed to recover for 24 h before the medium was replaced with DMEM supplemented with peptides at different concentrations. The solvent of the peptides was set as the control. The peptide-supplemented medium was replaced daily and the respective concentrations were maintained. The cells were subjected to an MTT cell proliferation assay at different time points. The plates were incubated at 37°C for 3 h with the addition of 20 µl/well MTT (5 mg/ml). Untransformed MTT in the solution was removed by aspiration. The formazan product was dissolved in DMSO, and plates were shaken vigorously at room temperature for 10–15 min to ensure complete solubilization. The optical density of the formazan solutions was measured by microplate reader at 540 nm.

SiHa cells [1] = experiment: Clonogenic assay, SiHa; format: cell-based; conditions: 14 days
Protocol: Cells were seeded in DMEM at 1×10^3 cells/well density in 12-well plates and allowed to attach to the substrate overnight. Thereafter, cells were treated with 0 µM, 16 µM, 32 µM, 80 µM, and 160 µM peptide in DMEM, and the medium was changed every three days. The plates were observed daily for colony formation. After 8 (for HeLa cells) or 14 (for SiHa and CaSki cells) days of treatment, the cultures were washed three times with PBS and stained with crystal violet in ethanol for 15 min. The colonies were then counted and photographed with the Alphalmager® EP image acquisition system (Alpha Innotech, Santa Clara, CA, USA).

SiHa cells [2] = experiment: PI staining cell cycle analysis by flow cytometry; format: cell-based; conditions: for percentage of cells in S-phase: control 25.96%
Protocol: Cell cycle distribution was determined by flow cytometry DNA analysis. […] After 24 h, cells were harvested and counterstained with PI (Invitrogen, Carlsbad, CA, USA) for flow cytometry according to the manufacturer's instructions. Briefly, cells were trypsinized and resuspended in 1 ml PBS. Cell suspension was dropped slowly into 4 ml anhydrous ethanol pre-cooled at −20°C and mixed. After standing at −20°C for more than 15 min, the ethanol was removed by centrifugation, after which 5 ml PBS was added and mixed, and cells were re-hydrated at room temperature for 15 min. PBS was then removed by centrifugation. Cells were stained with 2 µg/ml propidium iodide in 1 ml dilution buffer (100 mmol/L Tris, pH 7.4, 150 mmol/L NaCl, 1 mmol/L CaCl2, 0.5 mmol/L MgCl2, 0.1% Nonidet P-40, 100 µg/ml RNAase) at room temperature for 15 min and subjected to flow cytometry analysis. Analysis was performed on an Epics-XL flow cytometer (Beckman Coulter, Inc. CA, USA) with Modfit 3.0 software (Verity Software House, Topsham, ME, USA).

pRb [3] = experiment: pRb half-life measurement (cycloheximide, Western blot); format: cell-based; conditions: SiHa, 80 µM Pep-7 24 h, then 50 µg/ml cycloheximide 0 to 12 h; three experiments
Protocol: Measurements of pRb half-life were carried out.
The cells were then treated with 50 µg/ml cycloheximide for 0 to 12 h. The cell lysates collected at different time points were subjected to Western blotting assay as above. Band intensity was used to determine the proteins half-life.

HPV16E7/pRb interaction = experiment: His-pull down of pRb by His-HPV16E7; format: binding; conditions: 293T cell lysate (300 µg total proteins), 10 µl 8 mmol/L Pep-7, overnight 4°C
Protocol: For pull-down analysis, the purified His-HPV E7 protein (200 µg/ml×50 µl) was preincubated with 100 µl His-band Resin (Amersham Biosciences, Little Chalfont, UK) for 4 h at 4°C. The beads were then washed four times with lysis buffer and divided into two equal portions. […] The mixtures were incubated overnight at 4°C under continuous agitation. Beads were subsequently washed four times with a lysis buffer. Bound proteins were eluted by boiling in Laemmli sample buffer and analyzed by Western blot.

[4] = test system: cyclin A, E1 and D1 promoters containing E2F binding sites; experiment: Luciferase reporter assay, CaSki; format: cell-based; conditions: 80 µM, 24 h, means ± SE, three experiments
Protocol: The reporter assays were performed using Bright-Glo™ Luciferase Assay System (Promega, Madison, WI, USA) according to the manufacturer's instructions. Briefly, cells were plated in 12-well plates at a density of 1.5×10^5 cells/well. The following day, cells were transfected with reporter constructs. […] Thereafter, cell lysates were collected for reporter assays. The luciferase reporter activity of each sample was normalized against the corresponding protein content prior to calculation of the fold induction value relative to the controls. Each sample was determined in triplicate. The results represent means ± SE from three experiment runs.

SiHa tumor xenografts = experiment: H/E staining and BrdU-incorporation of tumor tissues; format: in vivo, mouse (Balb/C-nu/nu); conditions: 400 µg/mouse group
Protocol: (§1) Three or two mice bearing tumor of each group were prelabeled with intra-peritoneal injection of BrdU (100 mg/kg, Sigma-Aldrich, Inc., Aaint Louis, MO, USA) 15 hours before sacrificed. Tumor specimens were then prepared as formalin-fixed, paraffin-embedded sections for hematoxylin-eosin staining, BrdU and pRb immunohistochemical staining as previously described, [57]. In brief, immunostaining was performed on formalin-fixed, paraffin-embedded sections using the anti-pRb monoclonal and anti- BrdU monoclonal antibodies, respectively. Before the application of the primary antibodies, an antigen retrieval technique was performed. […] The antibodies were detected by means of the Strept Avidin-Biotin Complex (SABC) method (Wuhan Boster Biological Technology, Ltd., Wuhan, P.R. China.) according to the manufacturer's instructions. Stained slides were examined under a Nikon ECLIPSE TE2000-U microscope (Nikon Corporation, Tokyo, Japan) and images were collected and analyzed with Pixera Penguin 600CL DiRactor™ (Pixera Corporation, Los Gatos, CA, USA). BrdU or pRb-positive cells were counted in each section. The total cell number was determined by nuclear staining with hematoxylin. At least 1000 total cells for each case were counted.

pRb [5] = experiment: Immunohistochemistry of tumor tissues, pRb; format: in vivo, mouse (Balb/C-nu/nu); conditions: 400 µg/mouse group vs control
Protocol: as §1

HPV16 E7 = experiment: Immunohistochemistry of tumor tissues, HPV16 E7; format: in vivo, mouse (Balb/C-nu/nu); conditions: 400 µg/mouse group vs control

SACPKGLDWCGG (C&C bridged by disulfide bonds) (disulfide) [Pep-7]
cell proliferation (MTT) (HeLa cells): could not repress the proliferation of HeLa cells
colony formation (SiHa cells [1]; 16-160 µM): inhibited
concentration up to which colony number difference vs control became significant (p<0.02) (SiHa cells [1]; vs 0 µM group, three independent experiments): 32 µM
percentage of cells in S-phase (SiHa cells [2]; 32 µM Pep-7, 24 h): 14.75%
percentage of cells in S-phase (SiHa cells [2]; 80 µM Pep-7, 24 h): 8.75%
G1-to-S phase transition (SiHa cells [2]; 24 h, 32 and 80 µM, p<0.02): inhibited G1-to-S phase transition of SiHa cells significantly; also recorded: induced G1 arrest in SiHa cells
pRb half-life (pRb [3]): significantly expanded
pull-down of pRb by His-HPV16E7 (HPV16E7/pRb interaction): could not pull down pRb from 293T cell lysates with Pep-7 present
activities of cyclin A, E1 and D1 promoters [4]: remarkable down-regulation
H/E staining and BrdU uptake of tumor tissue (SiHa tumor xenografts): repressed tumor growth
pRb protein level in tumor tissue (pRb [5]): increased
HPV16E7 protein level in tumor tissue (HPV16 E7): decreased
